Data: article PMC4277498 (Cell reports, 2014)

What was measured:
gpr126 mutant zebrafish = conditions: forskolin-induced cAMP elevation, ref Monk et al., 2009; cited from earlier work
[1] = system: β-adrenergic receptor endogenously expressed in COS-7 cells; conditions: COS-7 with endogenous β-adrenergic receptor

SMILES	reversal of peripheral myelination phenotype (gpr126 mutant zebrafish)	dynamic mass redistribution response (EPIC) [1]
C=C[C@@]1(C)CC(=O)[C@]2(O)[C@@]3(C)[C@@H](O)CCC(C)(C)[C@@H]3[C@H](O)[C@H](OC(C)=O)[C@@]2(C)O1 [forskolin]	reversible	
CC(C)NCC(O)c1ccc(O)c(O)c1 (centres unmarked) [isoprenaline]		concentration-dependent cellular responses
